Measured values as given in patent US7465817B2, “Inositolized phospholipids” (Charite-Universitats Medizin Berlin, priority 2002, dated 2008).
Entries after “also recorded” stand apart in the source; their conditions may differ. Read-outs that look alike come from different tables or passages of the source.

Experiments:
HaCaT cells [1] = assay: cell proliferation ELISA, based on the incorporation of BrdU (Roche); parameters: species or system human; details: for IC50: serum-free, text says μmolar range; for antiproliferative effect (in words): non cytotoxic concentrations
Experimental: (§1) The impact of glycosidation in the glycosidated phospholipid analogs was determined in serum-free cell cultures of human keratinocytes (HaCaT cells) and a squamous carcinoma cell line (SCC-25).
Ino-PAF as obtained in Example 1, Glc-PC and Glc-PAF (synthesis according to Mickeleit, M. et al., Angew. Chem. Int. Ed. Engl. 34:2667-2669 (1995) and 37:351-353 (1998)), and HePC (Hexadecylphosphocholine; commercially available as Miltefosin) were tested in the cell proliferation ELISA, BrdU (col.), Roche in an amount of from 0.6 to 5 μM. Prior to the assay the cells were kept for 2 h in serum-free keratinocyte medium. Assays were performed using 10.000 cells per test, at least quadruple testing.

HaCaT cells [2] = assay: Viability determined by the LDH assay; assay type: cell-based; details: human
SCC-25 cells = assay: antiproliferative effect in squamous carcinoma cell line; assay type: cell-based; details: SCC-25 tumor cells
Experimental: as §1
In SCC-25 cells the antiproliferative effects of the glycosidated phospholipid analogs is much stronger.

HaCaT cells [3] = assay: cell matrix adhesion to ECM proteins (collagen IV, fibronectin, laminin), crystal violet; assay type: cell-based, human; details: for cell adhesion to extracellular matrix components fibronectin, laminin and collagen IV: treatment for 2 h; for cell matrix adhesion after incubation (summary of advantages): HePC with delayed onset of action
Experimental: In order to study the effect of Glc-PAF, Ino-PAF and Glc-PC (as specified in Example 2) on cell matrix adhesion HaCaT cells were rested 15 min at 4° C. and allowed to adhere to different ECM proteins (collagen IV, fibronectin and laminin) for 90 min at 37° C. The proteins of the extracellular matrix (ECM) were loaded onto the plastic surface by overnight treatment at 4° C. After fixing and staining in crystal violet, coloring was measured at 570 nm. Per test were used 50,000 cells, and quadruple testing was performed.

[4] = low but antiproliferative concentrations; cited from earlier work
[5] = cited from earlier work
HaCaT cells [6] = details: literature, Schoen et al. 1996; cited from earlier work
β1-Integrin = assay: β1 integrin surface expression and clustering, immunofluorescence; assay type: cell-based, human; details: HaCaT cells
Experimental: HaCaT cells were treated with Ino-PAF (obtained as described in Example 1) for 48 h. For the immunofluorescence measurement, cells were treated with 5 μM Ino-PAF. The antibody utilized for detection was directed against the β1-Integrin, which is a surface receptor conferring cell-matrix-adhesion. Immunofluorescence analysis was performed on a collagen IV matrix. 5×10^4 cells/well were left to adhere for 90 min and stained with K20-FITC (anti-β1) or Phalloidin-TRITC respectively.

HaCaT cells [7] = assay: cell proliferation ELISA, based on the incorporation of BrdU (Roche); details: Homo sapiens, Fischer et al. unpublished data, read-out: antiproliferative effect IC50
protein kinase C (PKC) = details: cited from earlier work

| Molecule | IC50 (HaCaT cells [1]; Homo sapiens) [µM] | antiproliferative effect (in words) (HaCaT cells [1]) | Viability (LD50) (HaCaT cells [2]) | antiproliferative effect (SCC-25 cells) | cell adhesion to extracellular matrix components fibronectin, laminin and collagen IV (HaCaT cells [3]) | apoptosis [4] | water solubility [5] | IC50 (HaCaT cells [1]) [µM] | cell matrix adhesion after incubation (summary of advantages) (HaCaT cells [3]) | cell matrix adhesion (HaCaT cells [6]) | toxic effect LD50 (HaCaT cells [2]) [µM] | surface expression of integrins (β1-Integrin) | integrin clustering (β1-Integrin; 5 μM, 48 h) | IC50 (HaCaT cells [7]) [µM] | increase of PKC activity (protein kinase C (PKC); HaCaT cells, non-toxic concentrations) | inhibition of PKC activity in vitro (protein kinase C (PKC); high, toxic concentrations) |
| --- | --- | --- | --- | --- | --- | --- | --- | --- | --- | --- | --- | --- | --- | --- | --- | --- |
| CCCCCCCCCCCCCCCCCCOC[C@H](COP(=O)([O-])OCC[N+](C)(C)C)O[C@H]1O[C@H](CO)[C@@H](O)[C@H](O)[C@H]1O [Glc-PAF, 1-O-octadecyl-2-O-α-D-gluco-pyranosyl-sn-glycero-3-phosphocholine] | 5 | inhibited cell proliferation | 9 | sub-μmolar range | increases cell adhesion | cause apoptosis | water-soluble |  |  |  |  |  |  |  |  |  |
| CCCCCCCCCCCCCCCCOP(=O)([O-])OCC[N+](C)(C)C [HePC, hexadecyl-phosphocholine] |  |  |  |  |  |  |  | 4.5 | increased | reduce cell matrix adhesion |  |  |  |  |  |  |
| CCCCCCCCCCCCCCCCCCOC[C@H](COP(=O)([O-])OCC[N+](C)(C)C)OCCO[C@@H]1[C@@H](O)[C@H](O)[C@@H](O)[C@H](O)[C@@H]1O [Ino-PAF, inositol-C2-PAF] | 1.8 | strong antiproliferative effects; also recorded: stronger antiproliferative effects than the therapeutically used HePC | 15 |  | concentration-dependent increase; also recorded: increases cell adhesion |  |  |  | increased |  | > 10 | not affected | induces integrin clustering | 1.7 |  |  |
| glyceroglucophosphocholine [Glc-PC] |  | strong antiproliferative effects; also recorded: inhibited cell proliferation | 50 |  |  |  | water-soluble | 9 |  |  |  |  |  |  | up to 70% | do not inhibit PKC activity |
